Paper PMC10272112 (Nature Communications, 2023)
“And” between values parts separate entries of the source, which are not always exact repeats. Equal entries are not always repeated.

Legend:
HDAC7 = target: T1, HDAC7 (Homo sapiens, UniProt Q8WUI4); test: Chemoproteomic competition pulldown assay with iC; format: binding
T1 construct: endogenous in cells; host or cells: cell lysate
T1 sequence (Q8WUI4 1-952): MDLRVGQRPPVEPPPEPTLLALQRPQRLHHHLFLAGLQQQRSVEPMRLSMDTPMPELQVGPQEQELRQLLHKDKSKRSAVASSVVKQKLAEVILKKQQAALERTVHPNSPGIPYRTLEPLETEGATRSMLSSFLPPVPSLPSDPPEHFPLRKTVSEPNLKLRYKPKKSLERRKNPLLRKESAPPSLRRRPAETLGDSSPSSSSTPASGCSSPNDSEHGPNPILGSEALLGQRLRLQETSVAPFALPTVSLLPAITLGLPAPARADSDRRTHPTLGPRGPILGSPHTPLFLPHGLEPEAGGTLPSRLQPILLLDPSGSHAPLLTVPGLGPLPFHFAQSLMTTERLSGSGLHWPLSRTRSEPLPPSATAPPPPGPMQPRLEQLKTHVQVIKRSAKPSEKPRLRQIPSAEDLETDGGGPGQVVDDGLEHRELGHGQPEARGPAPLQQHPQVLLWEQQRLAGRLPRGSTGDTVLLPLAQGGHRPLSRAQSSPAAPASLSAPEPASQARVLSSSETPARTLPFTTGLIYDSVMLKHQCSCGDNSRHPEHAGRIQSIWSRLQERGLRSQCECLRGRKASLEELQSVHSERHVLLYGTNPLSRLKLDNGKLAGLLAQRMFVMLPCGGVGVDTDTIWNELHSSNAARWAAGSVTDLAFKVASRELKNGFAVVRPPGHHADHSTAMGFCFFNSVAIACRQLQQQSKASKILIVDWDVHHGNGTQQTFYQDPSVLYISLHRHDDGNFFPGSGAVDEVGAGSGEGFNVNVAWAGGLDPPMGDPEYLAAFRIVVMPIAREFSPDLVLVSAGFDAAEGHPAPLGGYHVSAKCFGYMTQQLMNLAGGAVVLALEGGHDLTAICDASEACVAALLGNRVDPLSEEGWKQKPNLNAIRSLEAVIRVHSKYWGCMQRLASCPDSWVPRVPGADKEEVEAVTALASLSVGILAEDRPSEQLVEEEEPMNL
Description: To identify proteins directly bound by lipoic acid, we employed a chemoproteomic competition assay. Briefly, (R/S)-LA was immobilized on sepharose beads via an amidation reaction to form an affinity matrix (abbreviated as iL; Fig. 1a). This affinity matrix can be incubated with cell lysate to pull down potential LA or LM target proteins and identify these targets via bottom-up proteomics. In a competition assay, free LA or LM were incubated with lysate at different concentrations before pulling down and quantifying target proteins. […] (Fig. 1b, see “Methods” for details). […] The lysate buffer used in this assay contains 1 mM DTT to mimic the intracellular reductive milieu and to reduce lipoic acid and LM. […] Additional competition assays performed in lung adenocarcinoma cell A549 lysate also identified HDAC1, HDAC2, and HDAC6 as targets (Supplementary Fig. 1b). Amongst the three cell lines tested, HDACs were the only confidently identified targets across the 1500–3000 proteins quantified in these assays. […] We validated the results by analogous pulldown competition assays using two other affinity matrices prepared via the immobilization of either the HDAC inhibitor Quisinostat (iQ) and an analog of the class IIa HDAC inhibitor Bürli’s 31[14] (iC)[12]. We have previously shown that these affinity matrices specifically bind to the active sites of HDACs and have used them for HDACi selectivity profiling. Indeed, binding of (R/S)-LA and (R/S)-LM to HDAC1, HDAC2, HDAC3, HDAC6, and, to a lesser extent, HDAC8 was confirmed in these assays (Supplementary Fig. 1c, d). No binding to class IIa HDACs or the recently discovered common HDAC inhibitor off-target MBLAC2 was observed (Supplementary Fig. 1e)[12]. […] This observation might reflect electrostatic repulsion between the HDAC10 active site gate-keeper glutamic acid residues[15],[16] and the terminal carboxylic acid of LA.
To assess the degree of protein depletion from lysates by the affinity matrix, a second pulldown (PDPD) with fresh beads was performed using the unbound protein fraction from the vehicle control flow through. The beads were washed (1 × 1 mL of lysis buffer without inhibitors and only 0.4% Igepal, 2 × 2 mL of lysis buffer without inhibitors and only 0.2% Igepal), and captured proteins were denatured with 8 M urea buffer, alkylated with 55 mM chloroacetamide and digested with Trypsin according to standard procedures. The resulting peptides were desalted on a C18 filter plate (Sep-Pak® tC18 µElution Plate, Waters), vacuum dried, and stored at −20 °C until LC–MSMS measurement.
For the competition assays, relative binding was calculated based on the protein intensity ratio to the DMSO control for every single inhibitor concentration. EC50 values were derived from a four-parameter log-logistic regression with variable slope (constrain: bottom > 0). The obtained EC50 values were multiplied with a protein-dependent correction factor (cf), resulting in the apparent Kd value (Kd^app). The correction factor is determined by calculating the ratio of the protein intensity of two consecutive pulldowns of the vehicle control sample[13]. Targets of the inhibitors were annotated manually according to published procedures[12],[46],[47]. […] Additionally, the number of unique peptides and MSMS counts per condition were taken into account. Positive target binding across several independent experiments performed with different cell lysates further substantiated our confidence for a true positive drug-target binding event.

A549 cells = test: Arsenite-induced stress granule formation (G3BP1 immunofluorescence); format: cell-based; details: for arsenite-induced stress granule quantification (G3BP1), Mean / arsenite-induced stress granule quantification (G3BP1), Median / arsenite-induced stress granule quantification (G3BP1), individual values: sheet 4b; for arsenite-induced stress granule quantification (G3BP1), individual values: single data points
Description: The acetylation status of proteins can affect their macromolecular associations and the tendency of proteins to phase-separate into liquid condensates such as stress granules. […] After pre-incubation of cells with the compound, stress granule formation was induced using 30 min of arsenite treatment (1 mM). After treatment, cells were fixed for immunofluorescence detection of stress granules via the common stress granule marker protein G3BP1[21].
0.03 × 10^6 A549 cells were seeded at 4-chamber slides (Thermo, Nunc) and cultured at 37 °C overnight. Cells were treated with HDAC inhibitor SAHA and Lipoic acid or LM for 6 h, followed by 1 mM Arsenite for 30 min. Cells were fixed by 4% PFA and permeabilized by 0.5% Triton X-100/PBS. 10% Goat serum in PBS was used for blocking. After manually selecting an area with cell confluency of 50–80%, 16 pictures were taken randomly around the central point (ZEISS software in-built function). Stress granule marker G3BP1 (Aviva Systems Biology, ARP37713_T100) was visualized and quantified by ImageJ. Statistical analysis was performed with GraphPad Prism.

Row | SMILES | relative binding vs DMSO (HDAC7; log10 M -3.52288) | relative binding vs DMSO (HDAC7; log10 M -4) | relative binding vs DMSO (HDAC7; log10 M -4.52288) | relative binding vs DMSO (HDAC7; log10 M -5) | relative binding vs DMSO (HDAC7; log10 M -5.52288) | relative binding vs DMSO (HDAC7; log10 M -6) | relative binding vs DMSO (HDAC7; log10 M -6.52288) | relative binding vs DMSO (HDAC7; log10 M -7) | arsenite-induced stress granule quantification (G3BP1), Mean (A549 cells; LM 100 uM) | arsenite-induced stress granule quantification (G3BP1), Median (A549 cells; LM 100 uM) | arsenite-induced stress granule quantification (G3BP1), individual values (A549 cells; LM 100 uM) | arsenite-induced stress granule quantification (G3BP1), Mean (A549 cells; LM 300 uM) | arsenite-induced stress granule quantification (G3BP1), Median (A549 cells; LM 300 uM) | arsenite-induced stress granule quantification (G3BP1), individual values (A549 cells; LM 300 uM) | arsenite-induced stress granule quantification (G3BP1), Mean (A549 cells; LM 1000 uM) | arsenite-induced stress granule quantification (G3BP1), Median (A549 cells; LM 1000 uM) | arsenite-induced stress granule quantification (G3BP1), individual values (A549 cells; LM 1000 uM) | effect on stress granule numbers per cell (A549 cells; pre-incubation 6 h, then 1 mM arsenite 30 min)
1 | O=C(O)CCCCC1CCSS1 (racemic) [(R/S)-LA, (R/S)-lipoic acid] | 1.458 | 1.397 | 1.757 | 1.642 | 1.564 | 1.746 | 1.164 | 1.455 |  |  |  |  |  |  |  |  |  | 
2 | NC(=O)CCCCC1CCSS1 (racemic) [(R/S)-LM, (R/S)-lipoamide] |  |  |  |  |  |  |  |  | 50.8573 | 45.1 | 71 and 31.1875 and 45 and 63.6 and 40.5 and 81.5 and 35.3333 and 36 and 53.7143 and 35.8571 and 38.125 and 41.75 and 45.1 and 52.8 and 44.3 and 63.75 and 64.7778 and 49.1818 and 58.6 and 39.7273 and 76.2 | 32.0457 | 30.3222 | 24.4375 and 30.6667 and 27.6923 and 44.9286 and 34.8 and 39.0909 and 43.75 and 27.5454 and 17.65 and 28.1111 and 42.3 and 13.75 and 29.6842 and 28.3684 and 12.875 and 35.8333 and 25.5 and 35.3077 and 30.4444 and 43.6667 and 30.2 and 36.2308 and 27.3889 and 58.875 | 21.5611 | 21.7363 | 28.8889 and 25.875 and 20.6667 and 21.6154 and 30.8182 and 26.2857 and 7.556 and 13.9375 and 25.5714 and 28 and 21.25 and 20 and 16.75 and 17 and 9.615 and 15.3 and 22.6191 and 29.6154 and 21.8571 | dose-dependent reduction of stress granule numbers per cell
